Nine substances from patent US20160184404A1, “NOVEL HEMOGLOBIN-DERIVED PEPTIDE BASED PHARMACEUTICAL COMPOSITIONS” (CLINIQUE LA PRAIRIE, priority 2014, published 2016) can be followed below.

The subject of data set [1] is Human MNC. Briefly: Stimulation of human MNC with MPLA in the presence of Hb-derived peptides, cytokine ELISA of supernatant. In kind it is cell-based. The settings on record: for synergistic activity with MPLA, IL-6 release / synergistic activity in enhancing the MPLA-induced cytokine (IL-8) release, screen of native Hbγ1-peptide library: 20 h; for synergistic activity in enhancing the MPLA-induced cytokine (IL-8) release, screen of native Hbγ1-peptide library: MPLA 10 μg/ml, peptide 10 μM, FIG. 4. The protocol: Human mononuclear cells (MNC) were isolated from peripheral blood of healthy donors by density-gradient centrifugation on Ficoll gradient media (PAA Laboratories GmbH, Pasching, Austria). The cells were suspended and cultured in RPMI-1640 medium, containing […]. 50 μl of a peptide solution were incubated with 50 μl of a MPLA solution in a U-form 96 well micro cell culture plate #3799 (Corning Costar GmbH, Bodenheim, Germany) for 15 min at 37° C. After this incubation period 20 μl of heat-inactivated (56° C./30 min) human serum or RPMI-1640 medium were added. Finally, 80 μl of a MNC cell suspension was added to give a final concentration of 1 to 2×10^6 cells for culture in the absence of human serum or 1×10^6 cells for culture in the presence of serum. After a culture time of 20 h the cells were spun down and the culture supernatants were harvested. The cytokine concentrations in the supernatants were determined by matched antibody pairs for ELISA obtained from Invitrogen GmbH, Darmstadt (Germany). Mostly, each value represents the mean±SD of duplicate culture. In FIG. 3 the mean of three independent experiments is given, each of these three independent experiments having duplicate cultures.
A general note: ELISA stands for enzyme-linked immunosorbent assay.

Data set [2] concerns Purified human monocytes. Briefly: Stimulation of purified human monocytes with MPLA in the presence of Hbγ1-peptides, IL-6 ELISA. The settings on record: MPLA 1 μg/ml; peptide 1, 3, 10 μM; FIG. 9. In kind it is cell-based. The method, then: FIG. 9: Synergistic effect of Hbg-23 and Hbg-32 peptide on stimulation of human monocytes with MPLA. Purified human monocytes (>95%) were stimulated with MPLA (1 μg/ml) in the presence or absence of the Hbγ1-peptides Hbg-23 and Hbg-32-107 (1, 3 and 10 μM). Control cultures were kept without MPLA. After a culture period of 20 h, the IL-6 concentration in the supernatant was determined by ELISA. Each value represents the mean±SD of duplicate cultures.
Human mononuclear cells (MNC) were isolated from peripheral blood of healthy donors by density-gradient centrifugation on Ficoll gradient media (PAA Laboratories GmbH, Pasching, Austria). The cells were suspended and cultured in RPMI-1640 medium, containing […]. 50 μl of a peptide solution were incubated with 50 μl of a MPLA solution in a U-form 96 well micro cell culture plate #3799 (Corning Costar GmbH, Bodenheim, Germany) for 15 min at 37° C. After this incubation period 20 μl of heat-inactivated (56° C./30 min) human serum or RPMI-1640 medium were added. […] The cytokine concentrations in the supernatants were determined by matched antibody pairs for ELISA obtained from Invitrogen GmbH, Darmstadt (Germany). […]

Data set [3] is described as follows: Atomic force microscopy of MPLA dispersions. The data set is classed as physicochemical. The settings on record: MPLA 25 μM on mica, alone or with equimolar peptide; after one hour. The method, then: Atomic force microscopy (AFM) allows a direct look onto the morphology of lipid aggregates on a molecular scale under almost physiological conditions. This allows obtaining depth profiles of MPLA dispersions down to a resolution limit of lower than 1 nm. For the analysis, MPLA dispersions were prepared at a concentration of 25 μM in physiological saline in the absence and presence of an equimolar content of Hbg-32.

Data set [4] is described as follows: Small angle X-ray scattering (SAXS) of MPLA aggregates. In kind it is physicochemical. The protocol: SAXS measurements were performed at the European Molecular Biology Laboratory (EMBL) outstation at the Hamburg synchrotron radiation facility HASYLAB using the camera X33. Diffraction patterns in the range of the scattering vector 0.1<s<1.0 nm^−1 (s=2 sin θ/λ, 2θ scattering angle and A the wavelength=0.15 nm) were recorded at 40° C. with exposure times of 1 min using an image plate detector with online readout (MAR345, MarResearch, Norderstedt/Germany). The lipid concentration was in all cases 20 mM. The s-axis was calibrated with Ag-behenate, which has a periodicity of […]. The diffraction patterns were evaluated as described previously (Howe et al. (2008a)), assigning the spacing ratios of the main scattering maxima to defined three-dimensional structures. The lamellar and cubic structures are the most relevant here. The following features characterize the supramolecular structure: • (1) lamellar: The reflections are grouped in equidistant ratios, i.e., 1, ½, ⅓, ¼, etc. of the • lamellar repeat distance dλ; • (2) cubic: The different space groups of these non-lamellar three-dimensional structures differ in the ratio of their spacings. The relation between reciprocal spacing shkl=1/dhkl and lattice constant a is
shkl=[(h^2+k^2+l^2)/a]^1/2 • (hkl=Miller indices of the corresponding set of plane).

Data set [5] is described as follows: Freeze-fracture transmission electron microscopy of MPLA. In kind it is physicochemical. The settings on record: MPLA 1 mM alone or with equimolar peptide; FIG. 25. The protocol:
A small amount of the samples was sandwiched between two copper profiles and frozen by plunging the sandwiches immediately into liquefied ethane-propane-mixture cooled in liquid nitrogen. Fracturing and replication were performed at −150° C. in a BAF 400T freeze-fracture device (BAL-TEC, Balzers, Liechtenstein) equipped with electron guns and a film sheet thickness monitor. For replication Pt(C) was evaporated under an angle of 35° and (C) under 90°. The replicas were placed on copper grids and cleaned with a chloroform-methanol mixture.

Data set [6] concerns human memory T-cell. Briefly: Stimulation of memory T-cells in human MNC with recall antigens PPD and TT, 3H-thymidine incorporation. The settings on record: FIG. 20. The data set is classed as cell-based. The protocol:
For stimulation of T-lymphocytes, human MNC were cultured in RPMI-1640 medium, containing […], and 10% of inactivated human serum at a concentration of 0.5 to 1.0×10^6 cells per ml in flat-bottom 96-well tissue culture plates. To investigate the adjuvant effect of MPLA and Hbg-peptides, the recall antigens tetanus toxoid (TT) and purified protein derivatives of M. tuberculosis (PPD) (both from Statens Serum Institute, Copenhagen, Danmark) were used. After 6 days of culture, cells were labeled with ^3H-Thymidine (3HTdR (2 Ci/mmol, 0.2 μCi/culture)) and after an additional day of culture the cells were harvested on glass-filter mats for measurement of incorporated radioactivity into the DNA. The results are expressed as mean±SD of duplicate cultures.
There is a close interaction between the innate immune system, as presented by e.g. monocytes and dendritic cells, and the adaptive immune system, as presented by T-lymphocytes and B-lymphocytes. Monocytes and dendritic cells present antigenic fragments to the cells of the adaptive immune system to initiate a specific immune reaction. In addition, they support the strength and polarization of the immune response by means of the release of cytokines. […]

Setting [7] is: MPLA 1 μg/ml, peptide 0.1-10 μM, FIG. 5, 19.
[8] abbreviates: MPLA 3 μg/ml, peptide 1, 3, 10 μM, FIG. 7, 10, 12, 15, 16, 29.

For “Hbg-51: Hbg-35 alanine-scan peptide with Phe122/Ala-replacement (TVLAIHFGKEATPEVQASWQKMVTAVASAL; Hbg-51)”, the “effect of alanine replacement on the synergistic activity of Hbg-35 with MPLA, IL-6 release” value in data set [1] (alanine-scan, MPLA 3 μg/ml, peptide 3 μM, FIG. 18) was “enhanced the synergistic activity of Hbg-35”.
With “Hbg-23: native overlapping 15 or 16 amino acid peptide of human Hbγ1, printed Hbγ11-125 (VTVLAIHFGKEFTPE; Hbg-23)”, the “synergistic activity with MPLA, IL-6 release” value (“synergistic activity with MPLA” below) in data set [1] (setting [7]) was “strong synergistic activity”. Moreover, the “synergistic effect with MPLA in the absence and presence of human serum, IL-6 release” value in data set [1] (MPLA 3 μg/ml, peptide 1, 3, 10 μM, with or without 10% human serum, FIG. 8, 14) is given as “synergistic effects in the absence as well as in the presence of human serum”. Besides, the “synergistic activity in enhancing the MPLA-induced cytokine (IL-8) release, screen of native Hbγ1-peptide library” value in data set [1] is “best hits”; in data set [1] (listed as No. 23) it was “profound synergistic activities”. In addition, the “synergistic effect with MPLA during induction of IL-release, second batch of peptide” value in data set [1] (second batch, data not shown) was “no synergistic effect”. Besides, in data set [2], the “synergism with MPLA in stimulating purified human monocytes, IL-6 release” value is given as “synergize with MPLA”.
Consider VTLAAHLPAEFTPAVHASLDKFLASVSTVL (Hba-66), for which the “synergistic activity with MPLA” value in data set [1] (setting [8]) is listed as “only a minimal synergistic activity”.
In the case of “VLAIHFGKEFTPEVQASW [Hbg-68, Hbγ1[113-130], common part structure of peptides Hbg-32 to Hbg-39]”, the “synergistic activity with MPLA” value in data set [1] (setting [7]) was “only a minute synergistic activity or no activity at all”.
Consider CVLAHHFGKEFTPPVQAAYQKVVAGVANAL (Hbb-67), for which the “synergistic activity with MPLA” value in data set [1] (setting [8]) was “synergistically active in a similar range as Hbg-35-146m”.
On to TPEVQASWQKMVTAVA [Hbg-69], for which, in data set [1] (setting [7]), the “synergistic activity with MPLA” value is listed as “only a minute synergistic activity or no activity at all”.
As for “Hbg-24: native overlapping 15 or 16 amino acid peptide of human Hbγ1, Hbγ116-130 (IHFGKEFTPEVQASW; Hbg-24)”, the “synergistic activity with MPLA” value in data set [1] (setting [7]) is on record as “strong synergistic activity”. Moreover, the results for the “synergistic activity in enhancing the MPLA-induced cytokine (IL-8) release, screen of native Hbγ1-peptide library” value in data set [1] and in data set [1] (listed as No. 24) were “best hits” and “profound synergistic activities”, respectively.
Turning to Monophosphoryl lipid A [MPLA], the “morphology of MPLA aggregates (AFM)” value in data set [3] was “densely packed multi-lamellar aggregates with some hundred nm extension in z-direction”. Further, the “aggregate structure of MPLA (SAXS)” value in data set [4] (MPLA alone or in the presence of peptide, 40° C., FIG. 22) was “largely multi-lamellar”. In addition, the “sharp reflection (multi-lamellar periodicity), SAXS” value in data set [4] (MPLA alone, FIG. 22A) is 4.11 nm. Also, the “morphology of MPLA aggregates (freeze-fracture electron microscopy)” value in data set [5] was “very densely and lamellar packed aggregates with large sizes in the micrometer range”. In data set [6] (PPD 1 μg/ml or TT 0.1 LF/ml, MPLA 10-1000 ng/ml), the “adjuvant activity on the stimulation of T-memory cells with recall antigens” value is listed as “very effective adjuvant activity”. The “MPLA concentration sufficient to exert a nearly optimal adjuvant effect” value in data set [6] (PPD or TT induced proliferation) was not above 10 ng/mL.
For “Hbg-25: peptide of the native Hbγ1-peptide library that includes F122, E125 and V126 (EFTPEVQASWQKMVT; Hbg-25)”, the “synergistic activity in enhancing the MPLA-induced cytokine (IL-8) release, screen of native Hbγ1-peptide library” value in data set [1] was “inactive”.
